Source: patent US20090030037A1, “Sustained Release Formulation and Dosing Schedules of Leukotriene Synthesis Inhibitor for Human Therapy” (deCODE Genetics ehf., priority 2005, published 2009)
Where “and” joins values, the source holds several entries; their conditions need not be identical. Identical values can stand only once.

Experiments:
[1] = Study DG-031-204: liver function tests (AST, ALT, GGT); type: in vivo, human; details: 500 mg BID or TID
Experimental: An additional single site, open label study was carried out to obtain biomarker and safety data on additional DG-031 doses (i.e., 1000 mg and 1500 mg). This study examined the safety, tolerability and dose-related effects of DG-031 on inflammatory biomarkers including: LTB4, hsCRP, and MPO. A total of 119 patients with a prior history of CAD and MI were randomized to receive either 1000 mg DG-031 (500 mg BID) or 1500 mg DG-031 (500 mg TID) daily for 4-6 weeks. Treatment with DG-031 in addition to the subject's standard care, medication, and treatment, was prescribed by the patient's cardiologist. A majority of the subjects received statin therapy before, during and after the study. Follow-up assessments were performed 2 weeks after the end of study drug administration.
Liver function tests (AST, ALT, GGT) were assessed weekly during study drug administration and two weeks after dosing. […] Serum creatinine (Cr) was measured weekly during study drug administration and two weeks after dosing. In both the 500 mg BID and 500 mg TID treatment groups, mean serum Cr concentrations increased 4-5% relative to baseline levels. At the 2-week follow up visit, mean serum Cr returned to baseline in the cohort treated for 4 weeks, but remained elevated in the group treated for 6 weeks. Creatine kinase (CK) measurements were obtained weekly during study drug administration and two weeks after dosing.

[2] = tested on: MPO release, human whole blood; assay: In vitro MPO release in human whole blood after ionomycin stimulation; type: cell-based
Experimental: Neutrophils and other cells in human whole blood respond in vitro to activation by a calcium ionophore (e.g., ionomycin), with an increase in LTB4 production and with coupled release of MPO stimulated in part by LTB4 production in the assay. The effect of DG-031 on the capacity for production of LTB4 in vitro after ionomycin stimulation was evaluated at concentrations ranging from 0.1 μM up to 240 μM.
Blood samples collected from the clinical study described in Example 2 were evaluated assuming that the ex vivo response profile in clinical samples parallels the in vitro response over the entire concentration range, 250 mg TID dosing which maintains concentrations above 2-3 μg/ml (˜7 μM) should maintain a 30% or greater reduction of capacity for LTB4 production at all times. Peak concentrations of DG-031 with 250 mg TID dosing were about 10 μg/ml (28 μM) and should be associated with about 65% reduction of capacity for LTB4 production. The typical patient's pharmacodynamic response was expected to fluctuate between 30% and 65% reduction of capacity for LTB4 production over the course of a dosing interval.

[3] = tested on: Lp-PLA2; assay: Study DG-031-201: Lp-PLA2; type: in vivo, human; details: 2 lower doses (250 mg/day and 500 mg/day)
Experimental: (§1) Genet. 2004). Apart from FLAP, allele A of the SNP SG12S25 in the LTA4 hydrolase gene, another gene in the LT pathway, is also associated with MI, as described in PCT application no. PCT/US03/32556 and PCT/US04/30582 incorporated by reference.
(§2) Patients who met the study eligibility criteria were enrolled and randomized into 3 different dose-level groups: (1) 64 patients on 250 mg/day therapy with DG-031 (250 mg q.d.), vs placebo; (2) 64 patients on 500 mg/day therapy with DG-031 (250 mg b.i.d.) vs placebo; and (3) 63 patients on 750 mg/day therapy with DG-031 (250 mg t.i.d.) vs placebo. […] All patients received 3 tablets per day. Treatment periods, 4 weeks in duration each, were separated by a 2-week washout period. The placebo tablets were identical in shape, color, form and taste to the active tablets except that they contained no active drug ingredients. Treatment with DG-031 or placebo was in addition to the subject's standard care, including all medications and treatment plan as prescribed by the subject's cardiologist prior to enrolment. […]
(§3) All data were analyzed according to a pre-established statistical analysis plan (SAP) and by intention-to-treat (ITT). […] The difference between DG-031 and placebo treatment was the primary outcome, assessed separately for each of the biomarkers. […]

[4] = tested on: LTB4; assay: Study DG-031-201: ionomycin-induced LTB4 production in whole blood ex vivo; parameters: species or system human; details: for LTB4 production, percent change: Study 201
Experimental: as §1
Patients who met the study eligibility criteria were enrolled and randomized into 3 different dose-level groups: (1) 64 patients on 250 mg/day therapy with DG-031 (250 mg q.d.), vs placebo; (2) 64 patients on 500 mg/day therapy with DG-031 (250 mg b.i.d.) vs placebo; and (3) 63 patients on 750 mg/day therapy with DG-031 (250 mg t.i.d.) vs placebo. […] All patients received 3 tablets per day. Treatment periods, 4 weeks in duration each, were separated by a 2-week washout period. The placebo tablets were identical in shape, color, form and taste to the active tablets except that they contained no active drug ingredients. Treatment with DG-031 or placebo was in addition to the subject's standard care, including all medications and treatment plan as prescribed by the subject's cardiologist prior to enrolment. A total of 191 subjects were enrolled, with 172 completing all 8 visits or 8 patients short of the target of 180 patients.
The primary objective was to determine whether the FLAP inhibitor has a statistically significant effect, compared to placebo, on one or more biomarkers of MI risk, including: (1) ionomycin-induced LTB4 and MPO release by neutrophils ex vivo; (2) MPO, CRP, N-tyrosine, Lp-PLA2 or amyloid A in serum, or (3) LTE4 in urine. The secondary objective was to determine whether the effect of DG-031 was dose-dependent. The tertiary objective was to assess other biomarkers (See Results). Evaluation of safety and tolerability of the drug was also a primary endpoint.
All data were analyzed according to a pre-established statistical analysis plan (SAP) and by intention-to-treat (ITT). Each arm of the study, as well as pooled sets (combining dose levels), was considered for the primary analysis. Each such set is an AB/BA cross-over design and in the primary analysis of efficacy, the levels of biomarkers of MI risk at the end of the treatment periods (visits 4 and 7) were used as primary response variables. The difference between DG-031 and placebo treatment was the primary outcome, assessed separately for each of the biomarkers. Treatment effect was tested using a two-sample t-test on the period differences for suitably transformed response variables, under an assumption of normality of the transformed data. We report treatment effect as one half of the observed mean differences in the two-sample t-test, with a 95% CI. No pre-tests for carry-over effect were performed as a part of the primary analysis. Tests for carry-over were done and are reported separately from results of primary analysis. All hypotheses were tested at a two-sided nominal significance level of 0.05 and p-values based on t-tests are reported. In addition, for the primary efficacy endpoints where the effects of the two highest doses on 10 primary variables were studied, a randomization test was performed which corrects for multiple testing and ensures that the key results are not affected by distributional concerns. In particular, 1 million permutations of the patients into the different study tracks were performed, generating a reference distribution for the maximum of the 10 t-statistics of the biomarkers under the null hypothesis of no drug effect. […]

[5] = tested on: MPO; assay: Study DG-031-201: ionomycin-induced MPO release in whole blood ex vivo; parameters: species or system human; details: difference visit 2 to 5; 500 and 750 mg/day vs placebo
Experimental: as §1, §2, §3

SMILES: O=C(O)[C@@H](c1ccc(OCc2ccc3ccccc3n2)cc1)C1CCCC1 [DG-031, (R)-(+)-alpha-cyclopentyl-4-(2-quinolinylmethoxy)-Benzeneacetic acid]
- Mean liver function tests (AST, ALT, GGT) [1]: No adverse trends
- Concentration at which MPO release is maximally inhibited in vitro [2]: about 6 μM and ~2 μg/ml
- Effects on Lp-PLA2 [3]: not significant
- LTB4 production, percent change ([4]; 250 mg BID): −18%
- LTB4 production, percent change ([4]; 250 mg QD): −13%
- LTB4 production, percent change ([4]; 250 mg TID): −34% (St. 201) and −34% (−201)
- Reduction of capacity for LTB4 production ([4]; 250 mg TID, at steady state Cmin): 30%
- Carry-over effect, LTB4 in whole blood, corr. for wbc ([4]; difference visit 2 to 5, 500 and 750 mg/day vs placebo): −0.10
- Carry-over effect, MPO in whole blood, corr. for wbc [5]: 0.01
